# Where a name gives a salt, the structure may show the parent alone.
# Biological target: T1, α1G T-type calcium channel (Homo sapiens, UniProt O43497)
# T1 construct: host or cells: HEK293
# Assay: Assay for % inhibiting activity against T-type calcium channel using FDSS6000 (fluo-3 calcium imaging, KCl activation)
# Assay type: cell-based
# Details: 10 μM; FDSS (% inhibition); comparative compounds where R6 is a phenyl group; read-out: FDSS
# Method: In the present invention, in order to examine an efficient inhibitor against the T-type calcium channel, a primary assay for T-type calcium channel inhibiting activity was conducted by a high-efficient assay using FDSS6000, wherein mammal HEK293 cell lines (originated from human kidney carcinoma cells) that specifically express α1G of the T-type calcium channel was used for primary assay. Through the primary assay, compounds that show meaningful inhibition effects were selected. The selected compounds were used in a second assay for T-type calcium channel inhibiting activity using an electrophysiological whole cell patch clamp method, wherein mammal HEK293 cell lines (originated from human kidney carcinoma cells) that specifically express α1G of the T-type calcium channel was used for the second assay. Mibefradil, which had been developed as a T-type calcium channel inhibitor, was used as a reference.
# At 12-24 hours before being used for this assay, cells of HEK293 cell line (α1G cell line: KCTC 10519BP, Korean Collection for Type Cultures), which stably express α1G T-type calcium channel and Kir2.1, were sub-cultured in a poly-L-lysine treated 96-well plate with the density of 4×10^4 per well using a 96-well cell dispenser (Titertek). On the day of assay, the 96-well plate to which the cells were attached was washed three times with HEPES buffer solution (150 mM of NaCl, 5 mM of KCl, 1 mM of MgCl2, 2 mM of CaCl2, 10 mM of HEPES, 10 mM of glucose; pH 7.4) using a 96-well plate automatic washing device (Bio Tek), then reacted with HEPES buffer solution containing 5 μM fluo-3/AM and 0.001% Pluronic F-127 at room temperature for 1 hour, to label with fluorescent dye, and then further washed two times with HEPES buffer solution.
# Thereafter, at 10 minutes before the measurement using device FDSS6000, washing with HEPES buffer solution containing 10 mM CaCl2 was conducted once more, and the final volume was adjusted to 81 μl. Besides the above 96-well plate containing the cells, two additional drug 96-well plates were provided, wherein the 96-well plates contained an inhibiting drug and KCl (final concentration: 75 mM) for activating the T-type calcium channel, respectively. Since most of cell-based HTS devices are equipped with a liquid application system for injection of drug, but have no liquid sucking system, the inhibiting drug to be tested and KCl were respectively provided at a five-times higher concentration in 10 mM CaCl2 HEPES buffer solution at the amount of 27 μl, diluted by five-times at the final cell plate volume of 135 μl, and then used in this test. The concrete method of measurement using FDSS6000 was as follows. After recording the reference value of 20 seconds, the change of intracellular Ca^2+ concentration that was induced by treatment of the inhibiting drug to be tested for 75 seconds followed by administration of KCl was measured, wherein the percentage (%) inhibition effect of the test drug, through estimating the area of ratio value of 340/380 in the control without treatment of the test drug, was 100%. As a reference drug, 10 μM mibefradil was used.
# For accurate calcium imaging, the light source of 4 xenon lamps in FDSS6000 were radiated to selectively expose the cells to the excitation wavelength (340 nm and 380 nm) by a computer-controlled filter wheel. Data was obtained at intervals of 1.23 seconds. The emitter fluorescence light inflowed through a long-pass filter was obtained as an average 340/380 ratio value for each well in the 96-wells by using a CCD camera and a digital fluorescence analyzer in FDSS6000. All image data and analyses were obtained by using a FDSS6000-exclusive program from Hamamatsu Photonics.
# The obtained results are shown in Table 2 (the results from the compounds according to the examples of the present invention) and Table 3 (the results from the compounds according to the comparative example where R6 is a phenyl group) [FDSS (% inhibition) 10 μM].
# T1 sequence (O43497 whole entry): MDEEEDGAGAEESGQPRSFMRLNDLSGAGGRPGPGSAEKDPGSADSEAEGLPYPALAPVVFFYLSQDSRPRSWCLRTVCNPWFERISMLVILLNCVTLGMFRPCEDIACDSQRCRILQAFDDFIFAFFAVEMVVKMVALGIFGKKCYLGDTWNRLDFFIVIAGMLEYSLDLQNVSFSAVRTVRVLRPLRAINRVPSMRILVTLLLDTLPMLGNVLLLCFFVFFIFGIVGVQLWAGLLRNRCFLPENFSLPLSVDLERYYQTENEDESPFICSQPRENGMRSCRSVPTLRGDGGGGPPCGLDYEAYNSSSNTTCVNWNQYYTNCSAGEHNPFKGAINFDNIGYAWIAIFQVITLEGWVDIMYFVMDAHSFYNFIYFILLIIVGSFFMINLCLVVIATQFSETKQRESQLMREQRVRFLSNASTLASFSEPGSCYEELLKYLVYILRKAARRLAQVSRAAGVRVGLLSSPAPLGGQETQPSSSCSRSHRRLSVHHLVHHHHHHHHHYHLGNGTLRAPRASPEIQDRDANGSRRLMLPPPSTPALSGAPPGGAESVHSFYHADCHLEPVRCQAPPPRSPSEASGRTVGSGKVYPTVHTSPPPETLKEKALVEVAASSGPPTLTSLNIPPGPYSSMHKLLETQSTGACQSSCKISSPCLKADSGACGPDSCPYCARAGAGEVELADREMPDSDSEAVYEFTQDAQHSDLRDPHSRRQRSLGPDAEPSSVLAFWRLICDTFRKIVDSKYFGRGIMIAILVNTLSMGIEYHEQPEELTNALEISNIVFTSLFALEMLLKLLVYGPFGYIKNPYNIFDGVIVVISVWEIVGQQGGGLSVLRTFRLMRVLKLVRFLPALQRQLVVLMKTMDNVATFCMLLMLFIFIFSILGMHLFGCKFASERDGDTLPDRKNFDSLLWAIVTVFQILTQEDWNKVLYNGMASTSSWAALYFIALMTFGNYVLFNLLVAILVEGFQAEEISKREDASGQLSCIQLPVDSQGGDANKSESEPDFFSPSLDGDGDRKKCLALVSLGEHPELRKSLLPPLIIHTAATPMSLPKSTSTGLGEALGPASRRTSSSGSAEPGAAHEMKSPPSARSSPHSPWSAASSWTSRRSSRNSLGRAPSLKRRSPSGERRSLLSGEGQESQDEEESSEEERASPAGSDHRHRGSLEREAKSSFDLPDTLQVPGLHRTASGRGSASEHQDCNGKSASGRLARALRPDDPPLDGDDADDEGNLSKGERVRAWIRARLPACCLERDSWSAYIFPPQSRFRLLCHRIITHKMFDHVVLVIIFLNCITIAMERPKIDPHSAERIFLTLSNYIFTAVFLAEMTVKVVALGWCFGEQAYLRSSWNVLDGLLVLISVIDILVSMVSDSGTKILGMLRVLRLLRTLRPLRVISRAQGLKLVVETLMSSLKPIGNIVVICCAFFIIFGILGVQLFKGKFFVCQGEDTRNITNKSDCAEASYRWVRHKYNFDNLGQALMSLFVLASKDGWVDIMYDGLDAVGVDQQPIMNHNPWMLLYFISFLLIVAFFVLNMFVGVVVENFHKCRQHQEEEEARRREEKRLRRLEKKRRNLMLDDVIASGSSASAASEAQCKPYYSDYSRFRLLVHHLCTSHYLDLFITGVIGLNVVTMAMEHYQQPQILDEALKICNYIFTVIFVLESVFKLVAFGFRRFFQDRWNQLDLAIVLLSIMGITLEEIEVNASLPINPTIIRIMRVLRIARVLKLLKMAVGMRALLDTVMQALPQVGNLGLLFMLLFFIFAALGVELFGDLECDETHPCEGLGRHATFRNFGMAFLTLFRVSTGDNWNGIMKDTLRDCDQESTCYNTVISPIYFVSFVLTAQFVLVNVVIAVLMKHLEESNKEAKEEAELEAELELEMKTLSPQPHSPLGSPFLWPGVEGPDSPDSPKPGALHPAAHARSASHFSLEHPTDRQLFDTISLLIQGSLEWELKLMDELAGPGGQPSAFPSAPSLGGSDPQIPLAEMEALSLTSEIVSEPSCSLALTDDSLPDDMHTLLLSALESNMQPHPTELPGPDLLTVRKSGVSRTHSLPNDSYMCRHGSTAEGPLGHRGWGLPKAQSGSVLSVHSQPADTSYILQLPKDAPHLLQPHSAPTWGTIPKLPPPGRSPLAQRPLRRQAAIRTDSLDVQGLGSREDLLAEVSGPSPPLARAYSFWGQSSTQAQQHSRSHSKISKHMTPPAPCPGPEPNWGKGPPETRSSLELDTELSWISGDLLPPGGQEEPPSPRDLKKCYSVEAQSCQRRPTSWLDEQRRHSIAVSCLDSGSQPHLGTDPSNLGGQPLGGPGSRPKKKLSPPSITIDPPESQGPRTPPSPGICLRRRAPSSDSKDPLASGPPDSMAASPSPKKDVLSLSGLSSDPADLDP
row,inhibition at 10 µM [%],SMILES
1,26.2,"COc1ccc(N=C2SCC(CC(=O)Nc3ccc(Cl)cc3)N2C)cc1.Cl (stereo not shown) [KHG21648, [2-(4-methoxyphenylimino)-3-methyl-1,3-thiazolidine-4-yl]-N-(4-chlorophenyl)-acetamide hydrochloride]"
2,27.8,"COc1cccc(N=C2SCC(CC(=O)Nc3ccc(Cl)cc3)N2C)c1.Cl (stereo not shown) [KHG21649, [2-(3-methoxyphenylimino)-3-methyl-1,3-thiazolidine-4-yl]-N-(4-chlorophenyl)-acetamide hydrochloride]"

# Same assay, conditions: 10 μM; HEK293 cells stably expressing α1G T-type calcium channel and Kir2.1; compounds of the examples
row,FDSS (% inhibition)/10uM [%],SMILES
1,57.43,CCCCc1ccc(NC(=O)CC2CSC(=NC34CC5CC(CC(C5)C3)C4)N2C)cc1.Cl (stereo not shown) [KHG24409]
2,62.67,CN1C(=NC23CC4CC(CC(C4)C2)C3)SCC1CC(=O)Nc1ccc(Cl)cc1F.Cl (stereo not shown) [KHG24411]
3,56.4,CN1C(=NC23CC4CC(CC(C4)C2)C3)SCC1CC(=O)Nc1ccccc1.Cl (stereo not shown) [KHG24412]
4,66.47,"CCCCN1C(=NC23CC4CC(CC(C4)C2)C3)SCC1CC(=O)Nc1ccc2c(c1)OCO2.Cl (stereo not shown) [KHG24803, [2-(1-adamantylimino)-3-n-butyl-1,3-thiazolidine-4-yl]-N-(3,4-dioxymethylenephenyl)-acetamide hydrochloride]"
5,44.67,"Cl.O=C(CC1CSC(=NC23CC4CC(CC(C4)C2)C3)N1C1CC1)Nc1ccc2c(c1)OCO2 (stereo not shown) [KHG24804, [2-(1-adamantylimino)-3-cyclopropyl-1,3-thiazolidine-4-yl]-N-(3,4-dioxymethylenephenyl)-acetamide hydrochloride]"
6,68.43,"CCCN1C(=NC23CC4CC(CC(C4)C2)C3)SCC1CC(=O)Nc1ccc2c(c1)OCO2.Cl (stereo not shown) [KHG24837, [2-(1-adamantylimino)-3-n-propyl-1,3-thiazolidine-4-yl]-N-(3,4-dioxymethylenephenyl)-acetamide hydrochloride]"
7,53.33,"CC(C)N1C(=NC23CC4CC(CC(C4)C2)C3)SCC1CC(=O)Nc1ccc2c(c1)OCO2.Cl (stereo not shown) [KHG24838, [2-(1-adamantylimino)-3-isopropyl-1,3-thiazolidine-4-yl]-N-(3,4-dioxymethylenephenyl)-acetamide hydrochloride]"

# Same assay, conditions: 10 μM; HEK293 cells stably expressing α1G T-type calcium channel and Kir2.1; compounds of the examples; hydrochloride
row,FDSS (% inhibition)/10uM [%],SMILES
1,34.77,"CCc1ccc(NC(=O)CC2CSC(=NC3CCCC3)N2C)cc1.Cl (stereo not shown) [KHG24093, (2-cyclopentylimino-3-methyl-1,3-thiazolidine-4-yl)-N-(4-ethylphenyl)-acetamide hydrochloride]"
2,64.09,CN1C(=NC23CC4CC(CC(C4)C2)C3)SCC1CC(=O)Nc1cc(Cl)cc(Cl)c1.Cl (stereo not shown) [KHG24410]
3,62.08,Cc1ccc(NC(=O)CC2CSC(=NC34CC5CC(CC(C5)C3)C4)N2C)c(Cl)c1.Cl (stereo not shown) [KHG24413]
4,40.31,"Cc1ccc(NC(=O)CC2CSC(=NC3CCCCC3)N2C2CCCCC2)cc1.Cl (stereo not shown) [KHG24535, (2-cyclohexylimino-3-cyclohexyl-1,3-thiazolidine-4-yl)-N-(4-methylphenyl)-acetamide hydrochloride]"

# Same assay, conditions: HEK293, 10 μM; HEK293 cells stably expressing α1G T-type calcium channel and Kir2.1; compounds of the examples; read-out: FDSS (% inhibition)/10uM
row,inhibition at 10 µM [%],SMILES
1,30.5,"CN1C(=NC2CCCCC2)SCC1CC(=O)Nc1ccc2c(c1)OCO2 (stereo not shown) [KHG24086, (2-cyclohexylimino-3-methyl-1,3-thiazolidine-4-yl)-N-(3,4-methylenedioxyphenyl)-acetamide hydrochloride]"
2,35.4,"CN1C(=NC2CCCCC2)SCC1CC(=O)Nc1cc(F)ccc1F (stereo not shown) [KHG24087, (2-cyclohexylimino-3-methyl-1,3-thiazolidine-4-yl)-N-(2,5-difluorophenyl)-acetamide hydrochloride]"
3,43.1,"CCc1ccc(NC(=O)CC2CSC(=NC3CCCC3)N2C)cc1.Cl (stereo not shown) [KHG24092, (2-cyclopentylimino-3-methyl-1,3-thiazolidine-4-yl)-N-(4-ethylphenyl)-acetamide hydrochloride]"
4,53.6,"CC(C)c1ccc(NC(=O)CC2CSC(=NC3CCCCC3)N2C)cc1 (stereo not shown) [KHG24110, (2-cyclohexylimino-3-methyl-1,3-thiazolidine-4-yl)-N-(4-isopropylphenyl)-acetamide hydrochloride]"
5,33.6,"Cl.O=C(CC1CSC(=NC2CCCCC2)N1C1CCCCC1)Nc1ccc(Cl)cc1 (stereo not shown) [KHG24266, [2-cyclohexylimino-3-cyclohexyl-1,3-thiazolidine-4-yl]-N-(4-chlorophenyl)-acetamide hydrochloride]"
6,43.9,"Cl.O=C(CC1CSC(=NC2CCCCC2)N1C1CCCCC1)Nc1cc(C(F)(F)F)cc(C(F)(F)F)c1 (stereo not shown) [KHG24307, (2-cyclohexylimino-3-cyclohexyl-1,3-thiazolidine-4-yl)-N-(3,5-ditrifluoromethylphenyl)-acetamide hydrochloride]"
7,31,"Cc1ccc(NC(=O)CC2CSC(=NC3CCCCC3)N2C2CCCCC2)cc1.Cl (stereo not shown) [KHG24313, (2-cyclohexylimino-3-cyclohexyl-1,3-thiazolidine-4-yl)-N-(4-methylphenyl)-acetamide hydrochloride]"
8,47.4,"CN1C(=NC2CCCCCC2)SCC1CC(=O)Nc1ccc(N)cc1 (stereo not shown) [KHG24448, (2-cycloheptylimino-3-methyl-1,3-thiazolidine-4-yl)-N-(4-aminophenyl)-acetamide hydrochloride]"
9,40.5,"CN1C(=NC2CCCCCC2)SCC1CC(=O)NCc1ccc(N)cc1 (stereo not shown) [KHG24449, (2-cycloheptylimino-3-methyl-1,3-thiazolidine-4-yl)-N-(4-aminobenzyl)-acetamide hydrochloride]"
10,58.2,"CN1C(=NC2CCCCC2)SCC1CC(=O)Nc1cc(C(F)(F)F)cc(C(F)(F)F)c1 (stereo not shown) [KHG24529, (2-cyclohexylimino-3-methyl-1,3-thiazolidine-4-yl)-N-(3,5-ditrifluoromethylphenyl)-acetamide hydrochloride]"
11,42.6,"Cc1ccc(NC(=O)C2CSC(=NC3CCCCCC3)N2C)cc1 (stereo not shown) [KHG24628, (2-cycloheptylimino-3-methyl-1,3-thiazolidine-4-yl)-N-(4-methylphenyl)-carboxamide]"
12,56.8,"CN1C(=NC2CCCCCC2)SCC1C(=O)Nc1cc(C(F)(F)F)cc(C(F)(F)F)c1 (stereo not shown) [KHG24630, (2-cycloheptylimino-3-methyl-1,3-thiazolidine-4-yl)-N-(3,5-ditrifluoromethylphenyl)-carboxamide]"

# Test system: not given
# Assay: not given
# Details: not given
row,melting point [°C],SMILES
1,250 to 253,"COc1ccc(N=C2SCC(CC(=O)Nc3ccc(Cl)cc3)N2C)cc1.Cl (stereo not shown) [KHG21648, [2-(4-methoxyphenylimino)-3-methyl-1,3-thiazolidine-4-yl]-N-(4-chlorophenyl)-acetamide hydrochloride]"
2,228 to 231,"COc1cccc(N=C2SCC(CC(=O)Nc3ccc(Cl)cc3)N2C)c1.Cl (stereo not shown) [KHG21649, [2-(3-methoxyphenylimino)-3-methyl-1,3-thiazolidine-4-yl]-N-(4-chlorophenyl)-acetamide hydrochloride]"
3,278.6,"CN1C(=NC2CCCCCC2)SCC1C(=O)Nc1ccc(Oc2ccccc2)cc1 (stereo not shown) [KHG24682, (2-cycloheptylimino-3-methyl-1,3-thiazolidine-4-yl)-N-(4-phenoxyphenyl)-carboxamide]"
4,170.8,"CN1C(=NC2CCCCCC2)SCC1C(=O)Nc1ccc(C(C)(C)C)cc1 (stereo not shown) [KHG24684, (2-cycloheptylimino-3-methyl-1,3-thiazolidine-4-yl)-N-(4-t-butylphenyl)-carboxamide]"
5,241.2,"CN1C(=NC2CCCCCC2)SCC1C(=O)Nc1cc(Cl)ccc1F (stereo not shown) [KHG24686, (2-cycloheptylimino-3-methyl-1,3-thiazolidine-4-yl)-N-(5-chloro-2-fluorophenyl)-carboxamide]"
6,173.3,"CCCCc1ccc(NC(=O)C2CSC(=NC3CCCCCC3)N2C)cc1 (stereo not shown) [KHG24689, (2-cycloheptylimino-3-methyl-1,3-thiazolidine-4-yl)-N-(4-n-butylphenyl)-carboxamide]"

# — patent US7998989B2, “2-Imino-1,3-thiazoline-based compounds and T-type calcium channel inhibitors containing the same” (Korea Institute of Science and Technology, priority 2007, dated 2011)
